Experimental data as given in publication doi:10.1101/2021.07.20.453049v1, “Integration of the cyanophage-encoded phosphate binding protein into the cyanobacterial phosphate uptake system” (biorxiv, 2021).

Assays:
[1] = target: T1, Syn19 PstS (group II cyanophage PstS) (Synechococcus phage Syn19, UniProt E3SQC4); type: binding; details: crystallised with 5 mM sodium phosphate, pH 7.5; 18% PEG 3350, 0.2 M sodium formate
T1 construct: recombinant, E. coli BL21(DE3), pET-22b, C-terminal His6 tag

[2] = target: phage PstS (cyanophage P-SSM2 PstS) (Prochlorococcus phage P-SSM2, UniProt Q58MA7); assay: biochemical
[3] = target: T2, host PstS (Prochlorococcus NATL2A PstS) (Prochlorococcus marinus, UniProt Q46KP5); details: 20 mM Tris-HCl, 200 mM NaCl, pH 7.5, room temperature, 24 h; trace 32P tracer with cold NaH2PO4
T2 construct: gene PMN2A_0441
T2 sequence (Q46KP5 25-323): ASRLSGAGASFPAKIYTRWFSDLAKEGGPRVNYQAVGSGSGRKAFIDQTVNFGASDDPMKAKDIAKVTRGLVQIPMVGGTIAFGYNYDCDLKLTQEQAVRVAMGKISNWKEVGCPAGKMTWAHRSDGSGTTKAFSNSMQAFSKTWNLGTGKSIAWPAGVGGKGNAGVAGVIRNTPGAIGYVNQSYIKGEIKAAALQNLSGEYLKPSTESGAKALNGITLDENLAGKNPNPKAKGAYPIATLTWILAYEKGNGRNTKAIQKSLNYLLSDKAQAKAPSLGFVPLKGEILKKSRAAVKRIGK

T1 sequence (E3SQC4 19-326): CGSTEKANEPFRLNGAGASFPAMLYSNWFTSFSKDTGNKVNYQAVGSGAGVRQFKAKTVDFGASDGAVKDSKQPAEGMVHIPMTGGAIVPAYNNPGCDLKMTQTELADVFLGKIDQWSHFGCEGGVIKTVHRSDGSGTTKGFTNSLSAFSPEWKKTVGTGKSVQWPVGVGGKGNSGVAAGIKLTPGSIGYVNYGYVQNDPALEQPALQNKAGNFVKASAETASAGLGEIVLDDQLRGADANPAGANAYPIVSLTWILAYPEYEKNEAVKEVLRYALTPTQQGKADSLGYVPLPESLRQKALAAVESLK
Sequence of phage PstS (cyanophage P-SSM2 PstS) (Q58MA7 21-321): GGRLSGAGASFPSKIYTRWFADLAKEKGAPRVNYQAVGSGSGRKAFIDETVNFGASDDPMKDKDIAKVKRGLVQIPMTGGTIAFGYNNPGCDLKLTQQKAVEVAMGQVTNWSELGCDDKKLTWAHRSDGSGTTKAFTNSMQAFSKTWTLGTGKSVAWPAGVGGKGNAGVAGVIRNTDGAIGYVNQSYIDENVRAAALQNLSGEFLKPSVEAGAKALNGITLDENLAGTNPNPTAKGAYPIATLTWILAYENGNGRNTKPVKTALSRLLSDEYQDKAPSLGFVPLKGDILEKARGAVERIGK

SMILES: O=P(O)(O)O [phosphate]
- X-ray crystal structure, 1.70 Å [1]: The PstS structure of cyanophage Syn19 in complex with PO4.
- Kd [2]: 1390 ± 220 nM
- Kd [3]: 820 ± 440 nM
